Source: US4026888A, “Certain derivatives of particular 3-thiolated cephalosporins” (priority 1976, dated 1977)
≈ marks a conversion by molar mass, not a printed value. Read-outs that look alike come from different tables or passages of the source.

Tests used:
E. coli A15119 = experiment: Oral PD50 in mice; assay type: in vivo; conditions: oral, mice treated at 1 and 3.5 hours post-challenge
Experimental: (§1) Comparative Oral PD50 Values of
(§2) BL-S640 Derivatives in Mice
(§3) *Mice were treated at 1 and 3.5 hours post-challenge.

K. pneumoniae A9977 [1] = experiment: Oral PD50 in mice; assay type: in vivo; conditions: Klebsiella pneumoniae, A9977; oral; mice treated at 1 and 3.5 hours post-challenge; read-out: PD50
Experimental: as §1, §2, §3

S. pyogenes A9604 = experiment: Oral PD50 in mice; assay type: in vivo; conditions: Streptococcus pyogenes, mice treated at 1 and 3.5 hours post-challenge
Experimental: as §1, §2, §3

P. mirabilis A9707 = experiment: Oral PD50 in mice; assay type: in vivo; conditions: Proteus mirabilis, mice treated at 1 and 3.5 hours post-challenge
Experimental: as §1, §2, §3

[2] = tested on: S. aureus Meth-Res A15097; experiment: Antibiotic activity in nutrient broth (MIC); assay type: cell-based; conditions: Staphylococcus aureus, inoculum 10^-3; Meth-Res; derivatives adjusted for BL-S640 content; read-out: MIC
Text: (§4) Antibiotic Activity In Nutrient Broth
(§5) ** Dilution of overnight broth culture.
(§6) Antibiotic Spectrum Nutrient Broth
(§7) Antibiotic Spectrum in Nutrient Broth

Pr. morganii A15153 = experiment: Antibiotic activity in nutrient broth (MIC); assay type: cell-based; conditions: Morganella morganii, A15153, inoculum 10^-4; derivatives adjusted for BL-S640 content; read-out: MIC
Text: as §4, §5, §6, §7

Ps. aeruginosa A9843A = experiment: Antibiotic activity in nutrient broth (MIC); assay type: cell-based; conditions: Pseudomonas aeruginosa
Text: as §4, §5, §6, §7

Ser. marcescens A20019 = experiment: Antibiotic activity in nutrient broth (MIC); assay type: cell-based; conditions: Serratia marcescens, A20019, inoculum 10^-4; derivatives adjusted for BL-S640 content
Text: as §4, §5, §6, §7

S. aureus Smith A9537 = experiment: Antibiotic activity in nutrient broth (MIC); assay type: cell-based; conditions: Staphylococcus aureus, SMITHA9537, inoculum 10^-4, derivatives adjusted for BL-S640 content, read-out: MIC
Text: as §4, §5, §6, §7

E. coli Juhl A15119 = experiment: Antibiotic activity in nutrient broth (MIC); assay type: cell-based; conditions: Escherichia coli, JUHLA15119, inoculum 10^-4; derivatives adjusted for BL-S640 content; read-out: MIC
Text: as §4, §5, §6, §7

S. aureus BX1633 A9606 = experiment: Antibiotic activity in nutrient broth (MIC); assay type: cell-based; conditions: Staphylococcus aureus, derivatives adjusted for BL-S640 content, read-out: MIC
Text: as §4, §5, §6, §7

Ent. cloacae A9659 = experiment: Antibiotic activity in nutrient broth (MIC); assay type: cell-based; conditions: Enterobacter cloacae, A9659, inoculum 10^-4; derivatives adjusted for BL-S640 content; read-out: MIC
Text: as §4, §5, §6, §7

K. pneumoniae A15130 = experiment: Antibiotic activity in nutrient broth (MIC); assay type: cell-based; conditions: Klebsiella pneumoniae, A15130, inoculum 10^-4; derivatives adjusted for BL-S640 content; read-out: MIC
Text: as §4, §5, §6, §7

Ent. cloacae A9657 = experiment: Antibiotic activity in nutrient broth (MIC); assay type: cell-based; conditions: Enterobacter cloacae, A9657, inoculum 10^-4; derivatives adjusted for BL-S640 content; read-out: MIC
Text: as §4, §5, §6, §7

K. pneumoniae A9977 [3] = experiment: Antibiotic activity in nutrient broth (MIC); assay type: cell-based; conditions: Klebsiella pneumoniae, inoculum 10^-4, derivatives adjusted for BL-S640 content, read-out: MIC
Text: as §4, §5, §6, §7

Pr. mirabilis A9900 = experiment: Antibiotic activity in nutrient broth (MIC); assay type: cell-based; conditions: Proteus mirabilis, inoculum 10^-4, derivatives adjusted for BL-S640 content
Text: as §4, §5, §6, §7

Ent. cloacae A9656 = experiment: Antibiotic activity in nutrient broth (MIC); assay type: cell-based; conditions: Enterobacter cloacae, A9656, inoculum 10^-4; derivatives adjusted for BL-S640 content
Text: as §4, §5, §6, §7

Sal. enteritidis A9531 = experiment: Antibiotic activity in nutrient broth (MIC); assay type: cell-based; conditions: Salmonella enterica, ENTERITIDIS, inoculum 10^-4; derivatives adjusted for BL-S640 content; read-out: MIC
Text: as §4, §5, §6, §7

Str. pneumoniae A9585 = experiment: Antibiotic activity in nutrient broth (MIC); assay type: cell-based; conditions: Streptococcus pneumoniae, A9585, inoculum 10^-3 dilution of overnight broth culture; 45% AAB + 5% serum + 50% broth; derivatives adjusted for BL-S640 content
Text: as §4
(§8) * 45% AAB+ 5% serum+ 50% broth listed above.
as §5, §6
(§9) * 45% AAB + 5% serum + 50% broth
as §7
(§10) *45% AAB + 5% serum + 50% broth listed above.

Str. pyogenes A9604 = experiment: Antibiotic activity in nutrient broth (MIC); assay type: cell-based; conditions: Streptococcus pyogenes, A9604, inoculum 10^-3; 45% AAB + 5% serum + 50% broth; derivatives adjusted for BL-S640 content; read-out: MIC
Text: as §4, §8, §5, §6, §9, §7, §10

[4] = Mouse blood levels after oral administration; assay type: in vivo; conditions: mouse, blood, po, 100 mg/kg, Example 3, PO 100 mg./kg., Tween-CMC, average of two experiments, read-out: Blood Levels
Experimental: Mouse Blood Levels After Oral
Administration Of 100 mg./kg. Body Weight
The compounds were prepared in
Tween - carboxymethylcellulose
and 8 mice were used for each
Mouse Blood Levels After PO
Administration of 100 mg./kg. Body Weight
The compounds were prepared in Tween-CMC. BL-S640
The compounds were prepared in Tween-CMC. Values are the average of two

P. mirabilis A9900 [5] = experiment: IM PD50 in mice; assay type: in vivo; conditions: Proteus mirabilis
Text: Comparative IM PD50 Values of
as §2

[6] = Paper chromatography of rat urine for antibiotically active metabolites; assay type: in vivo; conditions: IM; rat urine 0-2 and 2-4 hours
Experimental: Paper chromatograms were run on rat urine collected between 0 and 2 and between 2 and 4 hours following IM administration of BL-S1055 and 640, for the detection of antibiotically active metabolites using descending chromatography with system No. 9 (butyl acetate:n-butanol:glacial acetic acid:H2 O= 80:15:40:24).

P. mirabilis A9900 [7] = experiment: Oral PD50 in mice; assay type: in vivo; conditions: Proteus mirabilis, A9900, po, 3.5 h, oral; mice treated at 1 and 3.5 hours post-challenge; read-out: PD50

O=C(O)C1=C(CSc2cnn[nH]2)CS[C@@H]2[C@H](N3C(=O)[C@@H](c4ccc(O)cc4)NC3c3ccccc3S(=O)(=O)O)C(=O)N12 (stereo partly drawn) [BL-S1055]
ED50 (E. coli A15119; Escherichia coli, A15119, po, 3.5 h, read-out: PD50): 1.8 mg/kg
PD50 (E. coli A15119): 1.6 mg./kg./treatment
ED50 (K. pneumoniae A9977 [1]): 1.6 mg/kg
ED50 (S. pyogenes A9604): 0.4 mg/kg
ED50 (P. mirabilis A9707): 1 mg/kg
MIC [2]: 4 µg/mL (≈ 6.34 µM)
MIC (Pr. morganii A15153): 32 µg/mL (≈ 50.7 µM)
MIC (Ps. aeruginosa A9843A): > 125 µg/mL
MIC (Ser. marcescens A20019): 125 µg/mL (≈ 198 µM)
MIC (S. aureus Smith A9537; + 50% serum): 2 µg/mL
MIC (S. aureus Smith A9537; nutrient broth): 0.13 µg/mL (≈ 0.206 µM)
MIC (E. coli Juhl A15119): 1 µg/mL (≈ 1.59 µM)
MIC (S. aureus BX1633 A9606; BX1633A9606, inoculum 10^-2): 2 µg/mL (≈ 3.17 µM)
MIC (S. aureus BX1633 A9606; BX1633A9606, inoculum 10^-3): 0.5 µg/mL (≈ 0.793 µM)
MIC (Ent. cloacae A9659): 63 µg/mL (≈ 99.9 µM)
MIC (K. pneumoniae A15130): 1 µg/mL (≈ 1.59 µM)
MIC (Ent. cloacae A9657): 0.5 µg/mL (≈ 0.793 µM)
MIC (K. pneumoniae A9977 [3]): 0.5 µg/mL (≈ 0.793 µM)
MIC (Pr. mirabilis A9900): 0.5 µg/mL (≈ 0.793 µM)
MIC (Ent. cloacae A9656): 125 µg/mL (≈ 198 µM)
MIC (Sal. enteritidis A9531): 0.35 µg/mL (≈ 0.555 µM)
MIC (Str. pneumoniae A9585): 0.06 µg/mL
MIC (Str. pyogenes A9604): 0.016 µg/mL
concentration at 0.5 h ([4]; 0.5 hr): 38200 ng/mL
concentration at 1 h ([4]; 1 hr): 35700 ng/mL
concentration at 2 h ([4]; 2 hr): 22000 ng/mL
concentration at 3.5 h ([4]; 3.5 hr): 11300 ng/mL
ED50 (P. mirabilis A9900 [5]): 1.6 mg/kg
Hydrolysis to the parent compound (BL-S640) [6]: complete hydrolysis
ED50 (P. mirabilis A9900 [7]): 8.2 mg/kg
